This is an account of results in patent publication US10000471B2, “Pyrazole P38 map kinase inhibitors” (Respivert Limited, priority 2010, dated 2018).

Data set [1] deals with IL-8 release in d-U937 cells. In words: LPS-induced IL-8 release in d-U937 cells. It counts as cell-based, human. The settings on record: Homo sapiens, dU937. The method in brief: (§1)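 Sandwich ELISA of TNFα and IL-8 in supernatants after 4 hr 0.1 μg/mL LPS (E. coli O111:B4) challenge of U937 cells differentiated with PMA 100 ng/ml for 48–72 hr, compound added 2 hr beforehand. IL-8: IC50 from inhibition versus vehicle; TNFα: REC50 from inhibition as percentage of 10 μg/mL BIRB796 effect.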

For data set [2], the system named is TNFα release in THP-1 cells. In words: LPS-induced TNFα release in THP-1 cells. It counts as cell-based, human. The settings on record: Homo sapiens. The method in brief:
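IC50 derived from concentration-response of TNFα inhibition relative to vehicle, with TNFα quantified by sandwich ELISA in supernatants. THP-1 cells were challenged 4 hr with LPS (E. coli, 3 μg/mL).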

In data set [3] the target is T1, p38 MAPKγ (MAPK12) (Homo sapiens, UniProt P53778).
T1 construct: purchased Invitrogen
T1 sequence (P53778 1-367): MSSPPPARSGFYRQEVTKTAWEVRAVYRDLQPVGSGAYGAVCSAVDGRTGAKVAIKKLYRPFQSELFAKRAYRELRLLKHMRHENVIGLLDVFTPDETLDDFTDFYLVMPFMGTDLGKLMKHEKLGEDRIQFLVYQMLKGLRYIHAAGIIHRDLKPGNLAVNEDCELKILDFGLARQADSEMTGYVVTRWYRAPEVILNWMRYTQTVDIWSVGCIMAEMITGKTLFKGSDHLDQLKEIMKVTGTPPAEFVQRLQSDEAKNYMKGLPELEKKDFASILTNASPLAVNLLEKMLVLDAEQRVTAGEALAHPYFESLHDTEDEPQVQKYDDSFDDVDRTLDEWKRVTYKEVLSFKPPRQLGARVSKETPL
In words: Enzyme inhibition assay (FRET, Z-LYTE), p38 MAPKγ. It is filed as biochemical. The settings on record: read-out: Enzyme Inhibition IC50 p38γ. The method in brief:
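Z-LYTE FRET readout: after 1 h kinase reaction (ATP 100 μM, peptide 2 μM) following 2 h RT enzyme–compound preincubation in HEPES, protease cleaves only unphosphorylated peptide. Percent inhibition from donor/acceptor ratio relative to control; IC50 fitted from the curve.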

Data set [4] concerns TNFα release in d-U937 cells. In words: LPS-induced TNFα release in d-U937 cells. It counts as cell-based, human. The settings on record: Homo sapiens, dU937, relative to 10 μg/mL BIRB796, read-out: LPS/TNFα REC50 d-U937. The method in brief:
as §1

In data set [5] the test system is Differentiated U937 cells. In words: Cell viability MTT assay. It is filed as cell-based, human. The settings on record: negative = apparent increase in viability; for MTT Assay (Viability) 4 h d-U937, percentage loss of cell viability: 4 hr in 5% FCS; for MTT Assay (Viability) 24 h d-U937, percentage loss of cell viability: 24 h in 10% FCS. The method in brief: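 Differentiated U937 cells pre-incubated with compound either 4 hr in 5% FCS or 24 h in 10% FCS, then 1 hr MTT. Formazan dissolved in DMSO, absorbance at 550 nm. Percentage viability loss relative to 0.5% DMSO vehicle; apparent increases appear as negative percentages.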

For data set [6], the target named is T2, p38 MAPKα isoform (MAPK14) (Homo sapiens, UniProt Q16539).
T2 construct: purchased Invitrogen
In words: Enzyme inhibition assay (FRET, Z-LYTE), p38 MAPKα via MAPKAP-K2 activation. It counts as biochemical. The settings on record: read-out: Enzyme Inhibition IC50 p38α. In a few lines:
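Z-LYTE FRET format, in which protease cleaves only non-phosphorylated peptide, read after 1 h development. Compound was mixed with p38 MAPKα for 2 h at RT, and inhibition was gauged from MAPKAP-K2 activation/phosphorylation rather than directly. Percent inhibition against an uninhibited control was fitted to give IC50.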

The test system of data set [7] is ICAM-1 induction in BEAS2B cells. In words: Poly I:C-induced ICAM-1 induction in BEAS2B cells. It counts as cell-based, human. The settings on record: Homo sapiens, BEAS-2B, read-out: PolyIC/ICAM1 IC50 BEAS2B. The method in brief:
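IC50 reflects inhibition of cell-surface ICAM-1 relative to vehicle, read by ELISA (OD450 against 655 nm) and divided by crystal violet OD595 for cell number. Readings were taken 18 hr after transfection of 1 μg/mL poly I:C into BEAS2B cells. Compound was added 2 hr before stimulation.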

T2 sequence (Q16539 whole entry, canonical isoform): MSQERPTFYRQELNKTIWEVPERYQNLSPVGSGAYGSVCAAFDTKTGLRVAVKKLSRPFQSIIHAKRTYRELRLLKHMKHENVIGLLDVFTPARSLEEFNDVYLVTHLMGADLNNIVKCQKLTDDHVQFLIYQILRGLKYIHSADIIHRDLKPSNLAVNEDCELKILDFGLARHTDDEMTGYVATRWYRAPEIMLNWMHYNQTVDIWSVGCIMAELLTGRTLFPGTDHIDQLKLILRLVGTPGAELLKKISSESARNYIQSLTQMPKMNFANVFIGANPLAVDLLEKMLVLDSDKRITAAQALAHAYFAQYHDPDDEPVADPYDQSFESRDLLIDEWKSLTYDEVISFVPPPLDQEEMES

With `CNC(=O)Nc1cc(Oc2ccc(NC(=O)Nc3cc(C(C)(C)C)nn3-c3ccc(C(=O)OC)cc3)c(Cl)c2Cl)ccn1` [Example 59, methyl 4-(3-tert-butyl-5-(3-(2,3-dichloro-4-(2-(3-methylureido)pyridin-4-yloxy)phenyl)ureido)-1H-pyrazol-1-yl)benzoate], the IC50 stood at 1.9 nM in data set [1]; 2 nM in data set [2]; 198 nM in data set [3]; 125 nM in data set [6]; 0.9 nM in data set [7]. In data set [4], the EC50 was 1.6 nM. In addition, the “MTT Assay (Viability) 4 h d-U937, percentage loss of cell viability” value in data set [5] is recorded as −24.8%. For the same compound, the “MTT Assay (Viability) 24 h d-U937, percentage loss of cell viability” value in data set [5] was determined as 0.0%.

Regarding `CNC(=O)Nc1cc(Oc2ccc(NC(=O)Nc3cc(C(C)(C)C)nn3-c3ccc(C(=O)O)cc3)c(Cl)c2Cl)ccn1` [Example 60, 4-(3-tert-butyl-5-(3-(2,3-dichloro-4-(2-(3-methylureido)pyridin-4-yloxy)phenyl)ureido)-1H-pyrazol-1-yl)benzoic acid], the IC50 is 23.5 nM in data set [1]; 22.7 nM in data set [2]; 12.9 nM in data set [3]; 10.3 nM in data set [6]; greater than 163 nM in data set [7]. Moreover, the EC50 in data set [4] turned out to be 9.2 nM. In data set [5], the “MTT Assay (Viability) 4 h d-U937, percentage loss of cell viability” value is −15.4%. For the same compound, in data set [5], the “MTT Assay (Viability) 24 h d-U937, percentage loss of cell viability” value is −52.4%.

Consider `CNC(=O)Nc1cc(Oc2ccc(NC(=O)Nc3cc(C(C)(C)C)nn3-c3ccc(CO)cc3)c3ncccc23)ccn1` [Example 61, 1-(4-(8-(3-(3-tert-butyl-1-(4-hydroxymethylphenyl)-1H-pyrazol-5-yl)ureido)quinolin-5-yloxy)pyridin-2-yl)-3-methylurea], for which the IC50 came to 235 nM in data set [1]; 2.5 nM in data set [2]; 94 nM in data set [3]; 32.7 nM in data set [6]; 11.4 nM in data set [7]. The EC50 in data set [4] was found to be 182 nM. In data set [5], the “MTT Assay (Viability) 4 h d-U937, percentage loss of cell viability” value is given as −31.9%. Further, the “MTT Assay (Viability) 24 h d-U937, percentage loss of cell viability” value in data set [5] is listed as −12.9%.

With `CNC(=O)Nc1cc(Oc2ccc(NC(=O)Nc3cc(C(C)(C)C)nn3-c3ccc(CO)cc3)c3cccnc23)ccn1` [Example 62], the IC50 in data set [1] was found to be 25.8 nM; in data set [2], 7.1 nM; in data set [3] it was 135 nM; in data set [6], 37.2 nM; in data set [7], 70.8 nM. For the same compound, the EC50 in data set [4] was 17.6 nM. In addition, in data set [5], the “MTT Assay (Viability) 4 h d-U937, percentage loss of cell viability” value was −13.4%. The “MTT Assay (Viability) 24 h d-U937, percentage loss of cell viability” value in data set [5] is given as −22.9%.

With `Cc1ccc(-n2nc(C(C)(C)C)cc2NC(=O)Nc2ccc(Oc3ccnc(NC(=O)N(C)C)c3)c(Cl)c2Cl)cc1` [Example 63], the IC50 in data set [1] is 11.4 nM; in data set [2], 0.5 nM; in data set [3] it was 140 nM; in data set [6], 28.9 nM; in data set [7], 3 nM. Also, the EC50 in data set [4] was determined as 0.3 nM. In addition, the “MTT Assay (Viability) 4 h d-U937, percentage loss of cell viability” value in data set [5] is listed as −29.7%. The “MTT Assay (Viability) 24 h d-U937, percentage loss of cell viability” value in data set [5] was determined as 51.6%.

With `COc1ccc(-n2nc(C(C)(C)C)cc2NC(=O)Nc2ccc(Oc3ccnc(NC(=O)N(C)C)c3)c(Cl)c2Cl)cc1` [Example 64, 3-(4-(4-(3-(3-tert-butyl-1-(4-methoxyphenyl)-1H-pyrazol-5-yl)ureido)-2,3-dichlorophenoxy)pyridin-2-yl)-1,1-dimethylurea], the IC50 in data set [1] turned out to be 15.1 nM; in data set [2], 0.4 nM; in data set [3], 58 nM; in data set [6], 13.3 nM; in data set [7], 1.5 nM. For the same compound, the EC50 in data set [4] is 0.3 nM. The “MTT Assay (Viability) 4 h d-U937, percentage loss of cell viability” value in data set [5] was −37.2%. The “MTT Assay (Viability) 24 h d-U937, percentage loss of cell viability” value in data set [5] turned out to be 37.2%.

Consider `COc1ccc(-n2nc(C(C)(C)C)cc2NC(=O)Nc2ccc(Oc3ccnc(NC(=O)NC4CC4)c3)c(Cl)c2Cl)cc1` [Example 65, 1-(4-(4-(3-(3-tert-butyl-1-(4-methoxyphenyl)-1H-pyrazol-5-yl)ureido)-2,3-dichlorophenoxy)pyridin-2-yl)-3-cyclopropylurea], for which the IC50 in data set [1] was 3.8 nM; in data set [2] it was 2.7 nM; in data set [3] it was 122 nM; in data set [6] it was 37.7 nM; in data set [7], 17.5 nM. Further, the EC50 in data set [4] stood at 2 nM. In addition, the “MTT Assay (Viability) 4 h d-U937, percentage loss of cell viability” value in data set [5] was −4.7%. Also, the “MTT Assay (Viability) 24 h d-U937, percentage loss of cell viability” value in data set [5] amounted to 20.2%.

`COc1ccc(-n2nc(C(C)(C)C)cc2NC(=O)Nc2ccc(Oc3ccnc(NC(=O)NCCO)c3)c(Cl)c2Cl)cc1` [Example 66, 1-(4-(4-(3-(3-tert-butyl-1-(4-methoxyphenyl)-1H-pyrazol-5-yl)ureido)-2,3-dichlorophenoxy)pyridin-2-yl)-3-(2-hydroxyethyl)urea]: the IC50 in data set [1] amounted to 4.9 nM; in data set [2], 1.1 nM; in data set [3], 45 nM; in data set [6], 21.6 nM; in data set [7] it was 5.5 nM. The EC50 in data set [4] is 0.3 nM. Moreover, the “MTT Assay (Viability) 4 h d-U937, percentage loss of cell viability” value in data set [5] worked out at 15.0%. The “MTT Assay (Viability) 24 h d-U937, percentage loss of cell viability” value in data set [5] was found to be 90.3%.

Consider `COCCNC(=O)Nc1cc(Oc2ccc(NC(=O)Nc3cc(C(C)(C)C)nn3-c3ccc(OC)cc3)c(Cl)c2Cl)ccn1` [Example 67, 1-(4-(4-(3-(3-tert-butyl-1-(4-methoxyphenyl)-1H-pyrazol-5-yl)ureido)-2,3-dichlorophenoxy)pyridin-2-yl)-3-(2-methoxyethyl)urea], for which the IC50 in data set [1] amounted to 5.8 nM; in data set [2], 1.2 nM; in data set [3], 67.8 nM; in data set [6], 27.9 nM; in data set [7], 2 nM. Also, the EC50 in data set [4] came to 1.7 nM. Besides, the “MTT Assay (Viability) 4 h d-U937, percentage loss of cell viability” value in data set [5] is recorded as −11.4%. Also, the “MTT Assay (Viability) 24 h d-U937, percentage loss of cell viability” value in data set [5] came out at 40.9%.

For the compound `COc1ccc(-n2nc(C(C)(C)C)cc2NC(=O)Nc2ccc(Oc3ccnc(NC(=O)NCCN4CCOCC4)c3)c(Cl)c2Cl)cc1` [Example 68, 1-(4-(4-(3-(3-tert-butyl-1-(4-methoxyphenyl)-1H-pyrazol-5-yl)ureido)-2,3-dichlorophenoxy)pyridin-2-yl)-3-(2-morpholinoethyl)urea], the IC50 in data set [1] was determined as 10.3 nM; in data set [2], 1.4 nM; in data set [3], 137 nM; in data set [6] it was 18.2 nM; in data set [7], 3.3 nM. The EC50 in data set [4] is 0.2 nM. Also, in data set [5], the “MTT Assay (Viability) 4 h d-U937, percentage loss of cell viability” value was found to be 11.3%. For the same compound, the “MTT Assay (Viability) 24 h d-U937, percentage loss of cell viability” value in data set [5] is given as 73.3%.

In the case of `COc1ccc(-n2nc(C(C)(C)C)cc2NC(=O)Nc2ccc(Oc3ccnc(NC(=O)NCCCn4ccnc4)c3)c(Cl)c2Cl)cc1` [Example 69, 1-(3-(1H-imidazol-1-yl)propyl)-3-(4-(4-(3-(3-tert-butyl-1-(4-methoxyphenyl)-1H-pyrazol-5-yl)ureido)-2,3-dichlorophenoxy)pyridin-2-yl)urea], the IC50 in data set [1] turned out to be 4.2 nM; in data set [2], 1.4 nM; in data set [3], 68.3 nM; in data set [6], 15.2 nM; in data set [7], 22.2 nM. Moreover, the EC50 in data set [4] was determined as 0.6 nM. For the same compound, in data set [5], the “MTT Assay (Viability) 4 h d-U937, percentage loss of cell viability” value is reported as 8.8%. The “MTT Assay (Viability) 24 h d-U937, percentage loss of cell viability” value in data set [5] was 75.5%.
